Laboratory results reported in the supplement of paper PMC10307832.

Tests used:
Assay in all cases: relative viability (nuclei count vs DMSO), 5 days (fraction); higher = more cells survive
Ponatinib + Tozasertib = compound: Cc1ccc(C(=O)Nc2ccc(CN3CCN(C)CC3)c(C(F)(F)F)c2)cc1C#Cc1cnc2cccnn12 [Ponatinib] + Cc1cc(Nc2cc(N3CCN(C)CC3)nc(Sc3ccc(NC(=O)C4CC4)cc3)n2)n[nH]1 [Tozasertib] (partner 0.1 µM)
Procedure, shortened: (§1)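 The day after seeding in 1536-well plates, lung cancer cell lines were treated by pin tool with a single drug, or with a fixed anchor-drug dose together with five library-drug doses (not always all listed) in √10 steps. After 5 days, a combined fix-and-stain solution (final 0.05% Triton X-100, 1% formaldehyde, 1 ug/ml Hoechst) was added. Nuclei counted on 4× images gave relative viability as treated counts over vehicle counts, reported as the median of duplicate plates.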

Pazopanib + Navitoclax = compound: Cc1ccc(Nc2nccc(N(C)c3ccc4c(C)n(C)nc4c3)n2)cc1S(N)(=O)=O [Pazopanib] + CC1(C)CCC(c2ccc(Cl)cc2)=C(CN2CCN(c3ccc(C(=O)NS(=O)(=O)c4ccc(N[C@H](CCN5CCOCC5)CSc5ccccc5)c(S(=O)(=O)C(F)(F)F)c4)cc3)CC2)C1 [Navitoclax] (partner 0.5 µM)
Procedure, shortened: as §1

Pazopanib + Crizotinib = compound: Cc1ccc(Nc2nccc(N(C)c3ccc4c(C)n(C)nc4c3)n2)cc1S(N)(=O)=O [Pazopanib] + C[C@@H](Oc1cc(-c2cnn(C3CCNCC3)c2)cnc1N)c1c(Cl)ccc(F)c1Cl [Crizotinib] (partner 1 µM)
Procedure, shortened: as §1

Pazopanib + Pemetrexed = compound: Cc1ccc(Nc2nccc(N(C)c3ccc4c(C)n(C)nc4c3)n2)cc1S(N)(=O)=O [Pazopanib] + Nc1nc2[nH]cc(CCc3ccc(C(=O)N[C@@H](CCC(=O)O)C(=O)O)cc3)c2c(=O)[nH]1 [Pemetrexed] (partner 0.2 µM)
Procedure, shortened: as §1

Work on HCC-44 yielded a relative viability (Ponatinib + Tozasertib; first compound 0.002 µM) of 0.946, a relative viability (Ponatinib + Tozasertib; first compound 0.006325 µM) of 0.882 and a relative viability (Ponatinib + Tozasertib; first compound 0.06325 µM) of 0.87. It also gave a relative viability (Ponatinib + Tozasertib; first compound 0.2 µM) of 0.595, a relative viability (Pazopanib + Navitoclax; first compound 0.01 µM) of 0.87 and a relative viability (Pazopanib + Navitoclax; first compound 0.03162 µM) of 0.896. For the same cell line, the relative viability (Pazopanib + Navitoclax; first compound 0.1 µM) was 1, the relative viability (Pazopanib + Navitoclax; first compound 0.3162 µM) was 0.82 and the relative viability (Pazopanib + Navitoclax; first compound 1 µM) was 0.984. For the same cell line, the relative viability (Pazopanib + Crizotinib; first compound 0.01 µM) was 0.839, the relative viability (Pazopanib + Crizotinib; first compound 0.03162 µM) was 0.779 and the relative viability (Pazopanib + Crizotinib; first compound 0.1 µM) was 0.86. The relative viability (Pazopanib + Crizotinib; first compound 0.3162 µM) was 0.795, the relative viability (Pazopanib + Crizotinib; first compound 1 µM) was 0.823 and the relative viability (Pazopanib + Pemetrexed; first compound 0.01 µM) was 0.697. For the same cell line, the relative viability (Pazopanib + Pemetrexed; first compound 0.03162 µM) was 0.637, the relative viability (Pazopanib + Pemetrexed; first compound 0.1 µM) was 0.605 and the relative viability (Pazopanib + Pemetrexed; first compound 0.3162 µM) was 0.62. For the same cell line, the relative viability (Pazopanib + Pemetrexed; first compound 1 µM) was 0.616.

HCC-827 was tested, and the relative viability (Ponatinib + Tozasertib; first compound 0.002 µM) was 0.403, the relative viability (Ponatinib + Tozasertib; first compound 0.006325 µM) was 0.42 and the relative viability (Ponatinib + Tozasertib; first compound 0.06325 µM) was 0.427. It also gave a relative viability (Ponatinib + Tozasertib; first compound 0.2 µM) of 0.414, a relative viability (Pazopanib + Navitoclax; first compound 0.01 µM) of 1.06 and a relative viability (Pazopanib + Navitoclax; first compound 0.03162 µM) of 1.02. For the same cell line, the relative viability (Pazopanib + Navitoclax; first compound 0.1 µM) was 1.11, the relative viability (Pazopanib + Navitoclax; first compound 0.3162 µM) was 1.07 and the relative viability (Pazopanib + Navitoclax; first compound 1 µM) was 0.98. The relative viability (Pazopanib + Crizotinib; first compound 0.01 µM) was 0.999, the relative viability (Pazopanib + Crizotinib; first compound 0.03162 µM) was 0.976 and the relative viability (Pazopanib + Crizotinib; first compound 0.1 µM) was 0.906. For the same cell line, the relative viability (Pazopanib + Crizotinib; first compound 0.3162 µM) was 0.902, the relative viability (Pazopanib + Crizotinib; first compound 1 µM) was 0.922 and the relative viability (Pazopanib + Pemetrexed; first compound 0.01 µM) was 0.272. It also gave a relative viability (Pazopanib + Pemetrexed; first compound 0.03162 µM) of 0.211, a relative viability (Pazopanib + Pemetrexed; first compound 0.1 µM) of 0.259 and a relative viability (Pazopanib + Pemetrexed; first compound 0.3162 µM) of 0.273. For the same cell line, the relative viability (Pazopanib + Pemetrexed; first compound 1 µM) was 0.247.

NCI-H1623 was tested, and the relative viability (Ponatinib + Tozasertib; first compound 0.002 µM) was 0.429, the relative viability (Ponatinib + Tozasertib; first compound 0.006325 µM) was 0.426 and the relative viability (Ponatinib + Tozasertib; first compound 0.06325 µM) was 0.453. It also gave a relative viability (Ponatinib + Tozasertib; first compound 0.2 µM) of 0.419.

NCI-H2405 was tested, and the relative viability (Ponatinib + Tozasertib; first compound 0.002 µM) was 0.728, the relative viability (Ponatinib + Tozasertib; first compound 0.006325 µM) was 0.809 and the relative viability (Ponatinib + Tozasertib; first compound 0.06325 µM) was 0.711. The relative viability (Ponatinib + Tozasertib; first compound 0.2 µM) was 0.681, the relative viability (Pazopanib + Navitoclax; first compound 0.01 µM) was 0.903 and the relative viability (Pazopanib + Navitoclax; first compound 0.03162 µM) was 0.985. It also gave a relative viability (Pazopanib + Navitoclax; first compound 0.1 µM) of 1.05, a relative viability (Pazopanib + Navitoclax; first compound 0.3162 µM) of 1.27 and a relative viability (Pazopanib + Navitoclax; first compound 1 µM) of 1.07. For the same cell line, the relative viability (Pazopanib + Crizotinib; first compound 0.01 µM) was 0.825, the relative viability (Pazopanib + Crizotinib; first compound 0.03162 µM) was 0.863 and the relative viability (Pazopanib + Crizotinib; first compound 0.1 µM) was 0.842. It also gave a relative viability (Pazopanib + Crizotinib; first compound 0.3162 µM) of 0.915, a relative viability (Pazopanib + Crizotinib; first compound 1 µM) of 0.713 and a relative viability (Pazopanib + Pemetrexed; first compound 0.01 µM) of 0.97. The relative viability (Pazopanib + Pemetrexed; first compound 0.03162 µM) was 1.11, the relative viability (Pazopanib + Pemetrexed; first compound 0.1 µM) was 1.17 and the relative viability (Pazopanib + Pemetrexed; first compound 0.3162 µM) was 1.14. The relative viability (Pazopanib + Pemetrexed; first compound 1 µM) was 1.41.

NCI-H1793 was tested, and the relative viability (Ponatinib + Tozasertib; first compound 0.002 µM) was 0.357, the relative viability (Ponatinib + Tozasertib; first compound 0.006325 µM) was 0.388 and the relative viability (Ponatinib + Tozasertib; first compound 0.06325 µM) was 0.29. For the same cell line, the relative viability (Ponatinib + Tozasertib; first compound 0.2 µM) was 0.204, the relative viability (Pazopanib + Navitoclax; first compound 0.03162 µM) was 0.421 and the relative viability (Pazopanib + Navitoclax; first compound 0.1 µM) was 0.387. For the same cell line, the relative viability (Pazopanib + Navitoclax; first compound 0.3162 µM) was 0.463, the relative viability (Pazopanib + Navitoclax; first compound 1 µM) was 0.542 and the relative viability (Pazopanib + Pemetrexed; first compound 0.03162 µM) was 0.864. For the same cell line, the relative viability (Pazopanib + Pemetrexed; first compound 0.1 µM) was 0.949, the relative viability (Pazopanib + Pemetrexed; first compound 0.3162 µM) was 0.76 and the relative viability (Pazopanib + Pemetrexed; first compound 1 µM) was 1.09.

In the case of NCI-H1563, the relative viability (Pazopanib + Crizotinib; first compound 0.01 µM) is reported as 0.963, the relative viability (Pazopanib + Crizotinib; first compound 0.03162 µM) is reported as 0.88 and the relative viability (Pazopanib + Crizotinib; first compound 0.1 µM) is reported as 0.894. For the same cell line, the relative viability (Pazopanib + Crizotinib; first compound 0.3162 µM) was 0.878, the relative viability (Pazopanib + Crizotinib; first compound 1 µM) was 0.888 and the relative viability (Pazopanib + Pemetrexed; first compound 0.01 µM) was 0.707. For the same cell line, the relative viability (Pazopanib + Pemetrexed; first compound 0.03162 µM) was 0.805, the relative viability (Pazopanib + Pemetrexed; first compound 0.1 µM) was 0.691 and the relative viability (Pazopanib + Pemetrexed; first compound 0.3162 µM) was 0.876. For the same cell line, the relative viability (Pazopanib + Pemetrexed; first compound 1 µM) was 0.81.

ABC-1 gave a relative viability (Ponatinib + Tozasertib; first compound 0.002 µM) of 0.213, a relative viability (Ponatinib + Tozasertib; first compound 0.006325 µM) of 0.147 and a relative viability (Ponatinib + Tozasertib; first compound 0.06325 µM) of 0.141. The relative viability (Ponatinib + Tozasertib; first compound 0.2 µM) was 0.204, the relative viability (Pazopanib + Crizotinib; first compound 0.01 µM) was 1.27 and the relative viability (Pazopanib + Crizotinib; first compound 0.03162 µM) was 1.04. The relative viability (Pazopanib + Crizotinib; first compound 0.1 µM) was 0.873, the relative viability (Pazopanib + Crizotinib; first compound 0.3162 µM) was 0.986 and the relative viability (Pazopanib + Crizotinib; first compound 1 µM) was 1.11.

NCI-H522 showed a relative viability (Ponatinib + Tozasertib; first compound 0.002 µM) of 0.51, a relative viability (Ponatinib + Tozasertib; first compound 0.006325 µM) of 0.543 and a relative viability (Ponatinib + Tozasertib; first compound 0.06325 µM) of 0.476. It also gave a relative viability (Ponatinib + Tozasertib; first compound 0.2 µM) of 0.455, a relative viability (Pazopanib + Pemetrexed; first compound 0.01 µM) of 0.842 and a relative viability (Pazopanib + Pemetrexed; first compound 0.03162 µM) of 0.83. For the same cell line, the relative viability (Pazopanib + Pemetrexed; first compound 0.1 µM) was 0.956, the relative viability (Pazopanib + Pemetrexed; first compound 0.3162 µM) was 1.09 and the relative viability (Pazopanib + Pemetrexed; first compound 1 µM) was 1.02.

In the case of SW 900, the relative viability (Ponatinib + Tozasertib; first compound 0.002 µM) is reported as 0.58, the relative viability (Ponatinib + Tozasertib; first compound 0.006325 µM) is reported as 0.51 and the relative viability (Ponatinib + Tozasertib; first compound 0.06325 µM) is reported as 0.337. For the same cell line, the relative viability (Ponatinib + Tozasertib; first compound 0.2 µM) was 0.38, the relative viability (Pazopanib + Pemetrexed; first compound 0.01 µM) was 0.512 and the relative viability (Pazopanib + Pemetrexed; first compound 0.03162 µM) was 0.504. The relative viability (Pazopanib + Pemetrexed; first compound 0.3162 µM) was 0.494 and the relative viability (Pazopanib + Pemetrexed; first compound 1 µM) was 0.5.

For A549, the relative viability (Pazopanib + Navitoclax; first compound 0.01 µM) was 1.16, the relative viability (Pazopanib + Navitoclax; first compound 0.03162 µM) was 1.18 and the relative viability (Pazopanib + Navitoclax; first compound 0.1 µM) was 1.21. The relative viability (Pazopanib + Navitoclax; first compound 0.3162 µM) was 1.21, the relative viability (Pazopanib + Navitoclax; first compound 1 µM) was 1.26 and the relative viability (Pazopanib + Crizotinib; first compound 0.01 µM) was 0.813. It also gave a relative viability (Pazopanib + Crizotinib; first compound 0.03162 µM) of 0.855, a relative viability (Pazopanib + Crizotinib; first compound 0.1 µM) of 0.709 and a relative viability (Pazopanib + Crizotinib; first compound 0.3162 µM) of 0.692. It also gave a relative viability (Pazopanib + Crizotinib; first compound 1 µM) of 0.732.

For NCI-H1792, the relative viability (Pazopanib + Navitoclax; first compound 0.03162 µM) was 0.62, the relative viability (Pazopanib + Navitoclax; first compound 0.1 µM) was 0.58 and the relative viability (Pazopanib + Navitoclax; first compound 0.3162 µM) was 0.627. For the same cell line, the relative viability (Pazopanib + Navitoclax; first compound 1 µM) was 0.569, the relative viability (Pazopanib + Crizotinib; first compound 0.03162 µM) was 0.927 and the relative viability (Pazopanib + Crizotinib; first compound 0.1 µM) was 0.967. For the same cell line, the relative viability (Pazopanib + Crizotinib; first compound 0.3162 µM) was 0.912, the relative viability (Pazopanib + Crizotinib; first compound 1 µM) was 0.952 and the relative viability (Pazopanib + Pemetrexed; first compound 0.03162 µM) was 0.943. It also gave a relative viability (Pazopanib + Pemetrexed; first compound 0.1 µM) of 0.742, a relative viability (Pazopanib + Pemetrexed; first compound 0.3162 µM) of 0.781 and a relative viability (Pazopanib + Pemetrexed; first compound 1 µM) of 0.79.

NCI-H1703 showed a relative viability (Pazopanib + Navitoclax; first compound 0.01 µM) of 0.865, a relative viability (Pazopanib + Navitoclax; first compound 0.03162 µM) of 0.925 and a relative viability (Pazopanib + Navitoclax; first compound 0.1 µM) of 0.344. For the same cell line, the relative viability (Pazopanib + Navitoclax; first compound 0.3162 µM) was 0.256, the relative viability (Pazopanib + Navitoclax; first compound 1 µM) was 0.287 and the relative viability (Pazopanib + Crizotinib; first compound 0.01 µM) was 0.587. It also gave a relative viability (Pazopanib + Crizotinib; first compound 0.03162 µM) of 0.628, a relative viability (Pazopanib + Crizotinib; first compound 0.1 µM) of 0.261 and a relative viability (Pazopanib + Crizotinib; first compound 0.3162 µM) of 0.215. It also gave a relative viability (Pazopanib + Crizotinib; first compound 1 µM) of 0.221.
